Data reported in patent US20220110846A1, “EMOLLIENT AND CLEANSING AGENT” (Oleon NV, priority 2020, published 2022).

Key:
[1] = test system: Candida albicans, DSM 1386; experiment: Minimum inhibitory concentration (ISO 20776-1:2019); format: cell-based
Method: (§1) Preservatives used were phenoxyethanol and benzyl alcohol.
(§2) Micro-organisms used were: • Staphylococcus aureus, DSM 799; • Candida albicans, DSM 1386.
(§3) Two samples were prepared comprising each 90 wt % of combination 1 and 10 wt % of respectively phenoxyethanol and benzyl alcohol.
(§4) Two comparative samples comprising 100 wt % of respectively phenoxyethanol and benzyl alcohol were also prepared.
(§5) To evaluate the boosting antimicrobial property of the combination according to the invention, the minimum inhibitory concentration (MIC) was determined according to a method based on standard ISO 20776-1:2019.

[2] = test system: Staphylococcus aureus, DSM 799; experiment: as above; format: cell-based
Method: as §1, §2, §3, §4, §5

MIC, Candida albicans [1]: 0.30%
MIC, Staphylococcus aureus [2]: 0.40%
Compound: OCc1ccccc1 [Benzyl alcohol, benzyl alcohol]
